Converted amounts (≈) assume the structure as drawn. “And” between values parts separate entries of the source, which are not always exact repeats. Identical values can stand only once. Like-named read-outs stand apart in the source and are kept apart here.

The nature of one data set: in vitro. The settings on record: human, h69/lx4 cells. Here is the method: (§1) The riminophenazines of the above formula (I), contain an imino group. […] The potency of compounds of the above general formula, as inhibitors of multi-drug resistance, was assessed by sensitization of a P-glycoprotein positive cell line to drugs associated with this form of resistance. A human small cell lung cancer cell line H 69/P as well as a multi-drug resistance (MDR) sub-line H69/LX4 were used. These cell lines were obtained from the Medical Research Council Clinical Oncology and Radiotherapeutics Unit, Hills Road, Cambridge, England. The H69/LX4 line was selected in vitro by progressive exposure to increasing concentrations of doxorubicin in order to increase P-glycoprotein expression.
(§2) The cell lines used were human small cell lung cancer cell line HP69/P and a multi-drug resistant (MDR) sub-line H69/LX4, both of which were supplied by the MRC Clinical Oncology and Radiotherapeutics Unit, Hills Road, Cambridge, England. The maintenance of the cell lines and drug response assays was done as described by Twentyman et al in British Journal of Cancer Volume 65 pages 335-340. The H69/LX4 line was originally described by Twentyman et al in British Journal of Cancer Volume 53, pages 529-637 (1986).
(§3) The data in parenthesis represents fold sensitivity compared with the chemotherapeutic agent without the MDR inhibitor.
(§4) The results obtained, are illustrated graphically in FIGS. 4 to 7 of the accompanying drawings.
(§5) The general procedure set forth above was followed, i.e. 7 days incubation in the4 presence of doxorubicin at 12,5 ng/ml or vinblastine at 25 or 3 ng/ml.
(§6) The effects were examined over a seven (7) day exposure to different concentrations of B4119 and B4125 on the sensitivity of a doxorubicin resistant leukaemia cell line (K562/MMB) and a lung carcinoma cell line (H69/LX4) to doxorubicin (dox) and vinblastine (VB) using the MTT assay.

The test system of data set [1] is multi-drug resistant (MDR) lung carcinoma cell line H69/LX4. The experiment in a line: in vitro. The note with it: for MDR reversal properties: with doxorubicin 12,5 ng/ml or vinblastine 25 ng/ml, FIGS. 4 to 7; for IC50: Homo sapiens; for INCREASED SENSITIVITY H69/Lx4: Table VIII, values equal IC50 NONE / IC50 with VB 25 ng/ml of Table VII, 10080 min. Here is the method:
as §1, §2, §3, §4, §5, §6

In data set [2] the test system is MDR leukaemia cell line K562/MMB. The experiment in a line: cells. The settings on record: for MDR activity / sensitivity against cell line K562/MMP: compared with known reference compound B4100; for IC50: Homo sapiens, K562, read-out: IC 50 K562/MMB VB 3 ng/ml, Table VII, with vinblastine 3 ng/ml. The protocol: A third cell line (562/MMB) used was a MDR leukemia cell line selected in vitro by progressive exposure to increasing concentrations of vinblastine in order to increase P-glycoprotein expression. This cell line was developed in the Department of Immunology, University of Pretoria from K562 (ATCC CCL 243) supplied by Highveld Biological (Pty) Ltd, Sandton.
as §5, §6

Data set [3] in a line: bio-availability (no method given).
Data set [4] relates to human small cell lung cancer cell line H69/P. The experiment in a line: MTT assay, 7 day exposure, sensitivity of parent cell line H69/P to chemotherapeutic agents. It is filed as cell-based. The protocol: as §1, §2, §3
(Formazan colour is commonly taken as a measure of viable cells.)

The test system of the next data set is H69/LX4 cells. The experiment in a line: [14C]-vinblastine accumulation in MDR cell line. Format: cell-based, human. The settings on record: 1 hour pretreatment, 30 minutes [14C]-vinblastine. Here is the method:
The effect of riminophenazines on the accumulation of [^14 C]-vinblastine was investigated. For these experiments, both of the above cell lines (H69/LX4 and H69/P) were prepared as described by Coley et al (Biochem. Pharmacal 38, 4467-4475 (1989)). After a 1 hour pretreatment with the MDR reversal agents, cells (1×10^6 /ml) were exposed to […] [^14 C]-vinblastine (1 μCi specific activity) for 30 minutes.

Where [5] appears, read: 168 h, read-out: IC 50 H69/Lx4 NONE.
[6] abbreviates: read-out: IC 50 H69/Lx4 DOX 12 ng/ml.
The mark [7] stands for this setting: read-out: IC 50 H69/Lx4 VB 25 ng/ml.
Setting [8] is: Table VIII, values equal IC50 NONE / IC50 with VB 3 ng/ml of Table VII, 10080 min.
Setting [9] is: H69/P, CsA 5 μg/ml, clofazimine 1 μg/ml or B669 0.5 μg/ml.
Setting [10] is: H69/LX4, CsA 5 μg/ml, clofazimine 1 μg/ml or B669 0.5 μg/ml.

In “in vitro”, `CC1(C)CC(N=c2cc3n(-c4cc(Cl)c(Cl)c(Cl)c4)c4ccccc4nc-3cc2Nc2cc(Cl)c(Cl)c(Cl)c2)CC(C)(C)N1` [Compound B4169, N,5-bis(3,4,5-trichiorophenyl)-3,5-dihydro-3-[(2',2',6',6'-tetramethyl-4-piperidyl)-imino]-2-phenazinamine] gave an MNTC at 168 h above 12.5 µg/mL. Further, in data set [1] (H69/LX4), the “MDR reversal properties” value is “Very good MDR reversal properties”. The IC50 turned out to be 1.57 µg/mL (≈ 2.21 µM) in data set [1] (setting [5]), 1.08 µg/mL (≈ 1.53 µM) in data set [1] (setting [6]) and 0.213 µg/mL (≈ 0.301 µM) in data set [1] (setting [7]). For the same compound, in data set [1], the “INCREASED SENSITIVITY H69/Lx4” value is on record as 7.36. Besides, the “INCREASED SENSITIVITY K 562/MMB” value in data set [2] (setting [8]) came out at 24.66. The “MDR activity / sensitivity against cell line K562/MMP” value in data set [2] is “increased substantially and unexpectedly”. The “bio-availability” value in data set [3] is on record as “good bio-availability”.
On to `c1ccc(Nc2cc3nc4ccccc4n(-c4ccccc4)c-3cc2=NC2CCCCC2)cc1` [Compound B669], for which, in data set [4] (setting [9]), the “fold sensitivity to Cyclophosphamide compared with agent without MDR inhibitor” value is 1.0 fold, the “fold sensitivity to Daunorubicin compared with agent without MDR inhibitor” value came to 1.2 fold, the “fold sensitivity to Doxorubicin compared with agent without MDR inhibitor” value stood at 1.0 fold and the “fold sensitivity to Etoposide compared with agent without MDR inhibitor” value amounted to 1.2 fold. Moreover, in data set [4] (setting [9]), the “fold sensitivity to Methotrexate compared with agent without MDR inhibitor” value amounted to 1.0 fold, the “fold sensitivity to Mitomycin C compared with agent without MDR inhibitor” value is on record as 0.7 fold and the “fold sensitivity to Vinblastine compared with agent without MDR inhibitor” value amounted to 1.1 fold. Besides, in data set [1] (setting [10]), the “fold sensitivity to Cyclophosphamide compared with agent without MDR inhibitor” value was found to be 1.1 fold, the “fold sensitivity to Daunorubicin compared with agent without MDR inhibitor” value worked out at 2.4 fold, the “fold sensitivity to Doxorubicin compared with agent without MDR inhibitor” value is 6.9 fold and the “fold sensitivity to Etoposide compared with agent without MDR inhibitor” value stood at 14.4 fold. Moreover, in data set [1] (setting [10]), the “fold sensitivity to Methotrexate compared with agent without MDR inhibitor” value is 0.9 fold; the “fold sensitivity to Mitomycin C compared with agent without MDR inhibitor” value turned out to be 2.5 fold; the “fold sensitivity to Vinblastine compared with agent without MDR inhibitor” value is 13.7 fold and ~13 fold. In addition, the IC50 in data set [1] (setting [5]) was 1 µg/mL (≈ 2.25 µM). Further, the IC50 in data set [1] (setting [6]) is 0.996 µg/mL (≈ 2.24 µM). Moreover, the IC50 in data set [1] (setting [7]) was found to be 0.254 µg/mL (≈ 0.571 µM). Besides, the “INCREASED SENSITIVITY H69/Lx4” value in data set [1] is reported as 3.94. In data set [2], the IC50 came to 0.023 µg/mL (≈ 0.0517 µM) and the “MDR activity / sensitivity against cell line K562/MMP” value was “good activity”. Also, the “INCREASED SENSITIVITY K 562/MMB” value in data set [2] (setting [8]) is recorded as 6.04. The “vinblastine accumulation in the MDR cell line” value in the data set on H69/LX4 cells is recorded as “significant enhancement”.
In the case of `CC(C)c1ccc(Nc2cc3nc4ccccc4n(-c4ccc(C(C)C)cc4)c-3cc2=NC2CC(C)(C)NC(C)(C)C2)cc1` [Compound B4158, N,5-bis(4-isopropylphenyl)-3,5-dihydro-3-[(2',2',6',6'-tetramethyl-4-piperidyl)-imino]-2-phenazinamine], the “MDR activity against the cell line H69/LX4” value in data set [1] is on record as “Reasonably good activity”. The “MDR reversal properties” value in data set [1] (H69/LX4) was “Very good MDR reversal properties”. Further, the IC50 in data set [1] (setting [5]) worked out at 0.408 µg/mL (≈ 0.696 µM); in data set [1] (setting [6]), 0.343 µg/mL (≈ 0.585 µM); in data set [1] (setting [7]), 0.124 µg/mL (≈ 0.212 µM). In data set [1], the “INCREASED SENSITIVITY H69/Lx4” value turned out to be 3.29. For the same compound, the “INCREASED SENSITIVITY K 562/MMB” value in data set [2] (setting [8]) is 4.69. Besides, in data set [3], the “bio-availability” value is “good bio-availability”.
On to `CC(C)N=c1cc2n(-c3ccc(Cl)cc3)c3ccccc3nc-2cc1Nc1ccc(Cl)cc1` [Compound B663, N,5-bis-(4-chlorophenyl)-3,5-dihydro-3-[(1-methylethyl)imino]-2-phenazinamine, reference compound], for which the “fold sensitivity to Etoposide compared with agent without MDR inhibitor” value in data set [4] (168 h, 1 ug/mL) amounted to 0.6 fold; in data set [1] (168 h, 1 ug/mL) it was 5.0 fold. Also, the figures for the “fold sensitivity to Cyclophosphamide compared with agent without MDR inhibitor” value in data set [4] (setting [9]) and in data set [1] (setting [10]) were 0.9 fold and 1.0 fold, respectively. In addition, the “fold sensitivity to Daunorubicin compared with agent without MDR inhibitor” value in data set [4] (setting [9]) is on record as 1.0 fold; in data set [1] (setting [10]), 4 fold. Further, the “fold sensitivity to Doxorubicin compared with agent without MDR inhibitor” value in data set [4] (setting [9]) was 0.8 fold; in data set [1] (setting [10]) it was 11 fold. The entries for the “fold sensitivity to Methotrexate compared with agent without MDR inhibitor” value in data set [4] (setting [9]) and in data set [1] (setting [10]) were 0.9 fold and 0.7 fold, respectively. Also, the figures for the “fold sensitivity to Mitomycin C compared with agent without MDR inhibitor” value in data set [4] (setting [9]) and in data set [1] (setting [10]) were 0.7 fold and 1.7 fold, respectively. The “fold sensitivity to Vinblastine compared with agent without MDR inhibitor” value in data set [4] (setting [9]) was 1.3 fold; in data set [1] (setting [10]), around 13 fold; in data set [1] (H69/LX4, CsA 5 μg/ml, clofazimine 1 μg/ml or B669 0.5 μg/ml, listed as Clofazimine (B663)) it was 13.7 fold. Besides, the IC50 in data set [1] (setting [5]) was 2.5 µg/mL (≈ 5.28 µM); in data set [1] (setting [6]), 1.31 µg/mL (≈ 2.78 µM); in data set [1] (setting [7]), 0.372 µg/mL (≈ 0.786 µM); in data set [2], 0.038 µg/mL (≈ 0.0803 µM). For the same compound, in data set [1], the “INCREASED SENSITIVITY H69/Lx4” value is reported as 6.72. Moreover, the “INCREASED S[…] 562/MMB” value in data set [2] (setting [8]) stood at 5.92. In addition, the “MDR activity / sensitivity against cell line K562/MMP” value in data set [2] is recorded as “good activity”. In addition, in the data set on H69/LX4 cells, the “vinblastine accumulation in the MDR cell line” value is recorded as “significant enhancement”.

Source of the values: patent publication US5763443A, “MDR resistance treatment and novel pharmaceutically active riminophenazines” (priority 1994, dated 1998).
